Key:
[1] = system: patients with mild to moderate COPD; test: Multi-center clinical trial, single-dose crossover: spirometry (FEV1) and safety; conditions: 18 μg via Spiriva Handihaler
[2] = Visual observation of suspension quality / co-suspension in glass vials (settling, centrifugation); type: physicochemical
Method: The canisters were crimp sealed with 63 μl valves (# BK 357, Bespak, King's Lynn, UK) and filled with 12.4 g of HFA 134a (1,1,1,2-tetrafluoroethane) (Ineos Fluor, Lyndhurst, UK) by overpressure through the valve stem. After injecting the propellant, the canisters were sonicated for 15 seconds and agitated on a wrist action shaker for 30 minutes. The canisters were fitted with polypropylene actuators with a 0.3 mm orifice (# BK 636, Bespak, King's Lynn, UK). Additional inhalers for visual observation of suspension quality were prepared using glass vials.
The canisters were crimp sealed with 63 μl valves (Valois DF30/63 RCU, Les Vaudreuil, France) and filled with 9.5 mL of HFA 134a (Ineos Fluor, Lyndhurst, UK) by overpressure through the valve stem. After injecting the propellant, the canisters were sonicated for 15 seconds and agitated on a wrist action shaker for 30 minutes. Additional inhalers with suspending particles only were manufactured as control for each configuration.
Metered dose inhalers were prepared by weighing the target masses of micronized active agent particles and suspending particles into coated glass vials with 15 mL volume. […] For each configuration, additional glass bottles were filled with the respective amount of FF active agent particles without any suspending particles. […]

With `C[N+]1(C)[C@@H]2C[C@@H](OC(=O)C(O)(c3cccs3)c3cccs3)C[C@H]1[C@@H]1O[C@@H]12` [tiotropium] the “Mean time to ≧10% improvement in FEV1” value [1] was “approximately 3 hours”.

For `COc1ccc(CC(C)NCC(O)c2ccc(O)c(NC=O)c2)cc1.O=C(O)/C=C/C(=O)O` (racemic) [FF, (±)-2-hydroxy-5-[(1RS)-1-hydroxy-2-[[(1RS)-2-(4-methoxyphenyl)-1-methylethyl]-amino]ethyl]formanilide fumarate], the “Visual observation: sedimentation of crystalline FF” value ([2]; glass vials, HFA 134a, left to settle 24 h) was “sedimented quickly”.

In the case of `OCc1cc(C(O)CNCCCCCCOCCCCc2ccccc2)ccc1O` (stereo not drawn) [SX, 4-hydroxy-α1-[[[6-(4-phenylbutoxy)hexyl]amino]methyl]-1,3-benzenedimethanol, 1-hydroxy-2-naphthalenecarboxylate], the “Visual observation: sedimentation of SX crystals” value ([2]; glass vials heated up to 30° C.-35° C. in a water bath) is reported as “sedimented rapidly”.

Reference: patent US8808713B2, “Compositions for pulmonary delivery of long-acting β2 adrenergic receptor agonists and associated methods and systems” (Pearl Thereapeutics, Inc., priority 2009, dated 2014)
